For 29 molecules, TGI and GI50 results are on record in PubChem BioAssay (NCI).

Common to all, as to assay: DTP human tumour cell line panel, 48 h
Assay [1] deals with SN12C renal.
Assay [2] deals with M14 melanoma.
For assay [3], the system named is UO-31 renal.
The test system of assay [4] is SK-MEL-28 melanoma.
Assay [5] concerns HCT-116 colon.
For assay [6], the system named is MOLT-4 leukemia.
The test system of assay [7] is SNB-75 CNS.
The test system of assay [8] is SK-MEL-5 melanoma.
The subject of assay [9] is MDA-MB-231 breast.
The subject of assay [10] is NCI-H460 lung.

Where “and” joins values, the source holds several entries; their conditions need not be identical. Equal entries are not always repeated.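 Cultured in 96-well plates, cells were exposed to test compound for 48 hours across five concentrations. Abbreviation: GI50, concentration required for 50% inhibition of growth. TGI: concentration producing complete growth inhibition.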

The TGI is the concentration giving total growth inhibition. Low values mean more potent growth arrest, high ones less potent growth arrest. `CCCCCCCC(=O)OCC(C[As](=O)(O)O)OC(=O)CCCCCCC` (centres undefined): the concentration for total growth inhibition (TGI) was 27.9 µM in assay [1]; 28.5 µM in assay [2]; 28.2 µM in [3]; 29.3 µM in [4]; 30.3 µM in [5]; 51.9 µM in [6]. The concentration for total growth inhibition (TGI) was 31.1 µM in assay [7] and 32 µM in [8].

As for `COc1cc([C@@H]2c3cc4c(cc3[C@@H](N=Cc3ccc(C(=O)O[C@@H](C(=O)O[C@H]5C[C@@]6(O)[C@@H](OC(=O)c7ccccc7)[C@@H]7[C@]8(OC(C)=O)CO[C@@H]8C[C@H](O)[C@@]7(C)C(=O)[C@H](OC(C)=O)C(=C5C)C6(C)C)[C@@H](NC(=O)c5ccccc5)c5ccccc5)cc3)[C@H]3COC(=O)[C@H]23)OCO4)cc(OC)c1O`, the TGI in [1] was above 50 µM; in [2], above 50 µM; in [4], above 50 µM; in assay [5], above 50 µM; in assay [6], above 50 µM; in [9], above 13.9 µM. Also, the TGI in assay [8] and in [10] was above 50 µM in each case.

For `N#Cc1ccc(Nc2cnc3ccc(N)cc3n2)cc1`, the TGI in assay [1], in assay [2], in [3], in assay [4], in [5] and in assay [6] was above 100 µM in each case. Besides, the TGI in assay [7], in assay [8] and in [10] was above 100 µM each time.

`CC(O)c1cc2c(s1)C(=O)c1scc(C(C)O)c1C2=O` (centres undefined): the total growth inhibition concentration (TGI) in assay [1] worked out at 0.44 µM; in assay [2], 0.442 µM; in assay [3] it was 1.41 µM; in [4] it was 0.62 µM; in assay [5], 2.64 µM; in [6], 5.4 µM. Also, the TGI in assay [7] was 0.767 µM; in assay [8] it was 0.351 µM; in [10], 2.1 µM.

What is called GI50 is the concentration giving 50% growth inhibition. In the case of `C=C1C(=O)O[C@@H]2OC3(C)CCC4C(C)CCC1C42OO3` (some centres undefined), the GI50 in assay [1] was 4.96 µM; in assay [3] it was 4.57 µM; in assay [5], 2.47 µM; in assay [6], 2.23 µM; in assay [7], 13.1 µM. In addition, the TGI is 16.6 µM and 12.3 µM in [1]; 17.5 µM and 22.1 µM in assay [3]; 25.1 µM and 23.9 µM in assay [4]; 10.2 µM and 3.52 µM in [5]; 5.96 µM and 5.53 µM in assay [6]; 25.9 µM and 7.74 µM in assay [7]. Further, the TGI in [8] was 17.2 µM; in [10], 8.04 µM and 5.58 µM.

As for `O=C1C2=C(CCCCC2)C2CCCCC12O` (centres undefined), the TGI in [1], in assay [2], in assay [3], in assay [4], in assay [5] and in [6] was above 100 µM throughout. In addition, the total growth inhibition concentration (TGI) in assay [7] and in assay [10] was above 100 µM each time.

Take `Cc1c(O)c(=O)ccn1CCc1c[nH]c2ccccc12`: the concentration for total growth inhibition (TGI) in [2] is 40.2 µM; in assay [5] it was above 100 µM; in [6], above 100 µM; in assay [9] it was 6.47 µM; in assay [8] it was 24.1 µM; in [10], 19.4 µM.

For the molecule `Cc1cc(C)c2c(=N)c3ccccc3n(CCCCCCn3c4ccccc4c(=N)c4c(C)cc(C)nc43)c2n1`, the TGI in [1] is 2.88 µM; in assay [2] it was 3.07 µM; in assay [3], 2.91 µM; in assay [4], 2.64 µM; in assay [5], 0.353 µM; in assay [7], 1.43 µM. For the same molecule, the concentration for total growth inhibition (TGI) in assay [9] was 1.09 µM; in assay [8], 3.39 µM.

As to `Cn1c(N=[N+]=[N-])cc(=O)n(C)c1=O`, the TGI in assay [1], in [2], in assay [3], in [5], in assay [6] and in assay [9] was above 100 µM throughout. Also, the TGI in assay [8] and in [10] was above 100 µM each time.

Consider `C/C(=N\NC(=O)c1cccnc1)c1cccc(/C(C)=N/NC(=O)c2cccnc2)n1.CC(=O)[O-].CC(=O)[O-].[Zn+2]`, for which the TGI is above 100 µM in [1]; above 47.2 µM in [2]; above 100 µM in assay [3]; above 100 µM in assay [4]; above 100 µM in [5]; 11.4 µM in [6]. Also, the TGI in [7] is 98.2 µM; in assay [8] it was above 28.6 µM; in assay [10], above 100 µM. Besides, the GI50 in assay [4] was 29.4 µM; in assay [5], 1.68 µM; in assay [7], 24.7 µM; in assay [8] it was 12.9 µM.

In the case of `C=CCCC(On1c(-c2ccc(Cl)cc2)csc1=S)c1ccccc1` (centres undefined), the TGI in assay [1], in [2], in assay [3], in [4], in [5] and in assay [6] was above 100 µM throughout. Further, the figures for the concentration for total growth inhibition (TGI) in assay [9] and in assay [8] were above 100 µM and 64.8 µM, respectively.

With `CN1CCN(/C(N)=C(\C#N)C(=O)Nc2ccccc2)CC1`, the concentration for total growth inhibition (TGI) in [1], in assay [2], in assay [3], in assay [4], in assay [5] and in [6] was above 100 µM each time. The total growth inhibition concentration (TGI) in assay [7], in assay [8] and in assay [10] was above 100 µM throughout.

`CC(=O)NC(C)c1ccc(N=NN2CCCC2)cc1` (centres undefined): the TGI in assay [1], in [2], in [3], in [4], in assay [5] and in assay [7] was above 100 µM in each case. The TGI in [9] and in assay [8] was above 100 µM throughout.

For the molecule `O=C(NN1C(=O)CSC1c1ccco1)c1ccncc1` (centres undefined), the total growth inhibition concentration (TGI) in assay [1], in assay [2], in assay [3], in assay [4], in [5] and in [6] was above 100 µM throughout. In addition, the concentration for total growth inhibition (TGI) in [9], in [8] and in assay [10] was above 100 µM throughout.

As to `COC(=O)c1c(O)ccc2c1c1c(n2Cc2ccccn2)C(=O)c2ccccc2C1=O`, the TGI was above 100 µM in assay [1]; above 100 µM in assay [2]; above 100 µM in assay [3]; 99.2 µM in assay [4]; above 100 µM in assay [5]; above 100 µM in [6]. Moreover, the concentration for total growth inhibition (TGI) in [9], in assay [8] and in assay [10] was above 100 µM in each case.

`CC(C)(C)c1cc(/C=C/C(=O)CC(=O)/C=C/c2cc(C(C)(C)C)c(O)c(C(C)(C)C)c2)cc(C(C)(C)C)c1O`: the TGI in assay [1], in assay [2], in assay [3], in assay [4], in [5] and in assay [7] was above 50 µM throughout. The TGI in assay [9], in [8] and in assay [10] was above 50 µM in each case.

For the molecule `COc1c(-c2cccs2)oc2c(CC(=O)O)cccc2c1=O`, the TGI in [1] is above 100 µM; in assay [2] it was above 100 µM; in assay [3], 48.9 µM; in assay [5] it was above 100 µM; in assay [6] it was above 100 µM; in assay [9] it was above 100 µM. For the same molecule, the TGI in assay [8] is above 100 µM.

With `c1ccc(CCN2CCN=C2Cc2ccccc2)cc1`, the TGI in assay [1], in assay [2], in assay [3], in [4], in assay [5] and in assay [7] was above 100 µM each time. The TGI in [9], in [8] and in assay [10] was above 100 µM throughout.

In the case of `N#CCOc1cccc(C2(N3CC=CCC3)CCCCC2)c1`, the TGI in assay [1], in [2], in assay [3], in [4], in assay [5] and in assay [6] was above 100 µM throughout. Further, the TGI in assay [9] and in [8] was above 100 µM in each case.

For `CCOC(=O)c1nc2cc(C(F)(F)F)ccc2nc1Nc1ccc(F)cc1`, the TGI in [1], in [2], in assay [4], in [5], in assay [7] and in assay [9] was above 100 µM each time. For the same molecule, the TGI in [8] and in [10] was above 100 µM each time.

In the case of `O=c1oc2c/c(=C\c3ccccc3)c(=O)c3cccc1c3-2`, the TGI is above 100 µM in assay [1]; 48.6 µM in assay [2]; 85.5 µM in [3]; above 100 µM in assay [4]; 71.2 µM in assay [5]; above 100 µM in assay [7]. For the same molecule, the TGI in assay [9] is 69.2 µM; in [10] it was above 100 µM.

Turning to `COc1ccc(/C=N\NC(=O)Nc2cccc3ccccc23)cc1`, the TGI in assay [1] is above 100 µM; in assay [2], above 100 µM; in assay [3], above 100 µM; in assay [4], above 100 µM; in [5], above 100 µM; in [7], 34.5 µM. Moreover, the concentration for total growth inhibition (TGI) in assay [9] was 44.4 µM; in [8], above 100 µM; in assay [10] it was 40.2 µM.

Consider `Cn1cc(-c2nc(-c3c[nH]c4ccncc34)cs2)c2cc(F)ccc21`, for which the GI50 in assay [1] was 1.68 µM; in assay [2], 1.79 µM; in assay [3], 1.57 µM; in assay [4], 1.63 µM; in assay [5] it was 1.63 µM; in [7] it was 1.26 µM. Further, the GI50 in [9] is 1.55 µM; in assay [8], 1.65 µM; in [10] it was 1.77 µM. Besides, the total growth inhibition concentration (TGI) in assay [1] amounted to 3.32 µM; in [2], 3.37 µM; in [3], 2.92 µM; in assay [4], 3.04 µM; in assay [5] it was 3.28 µM; in [7] it was 2.6 µM. Further, the figures for the TGI in assay [9], in [8] and in assay [10] were 3.1 µM, 3.03 µM and 3.42 µM, respectively.

Consider `COc1cccc2c1-c1c(OC)cccc1SS2`, for which the concentration for total growth inhibition (TGI) in [1] is 30.3 µM; in [2], above 100 µM; in assay [3] it was above 100 µM; in assay [4], 79.4 µM; in assay [5], 40.4 µM; in assay [6] it was 38.1 µM. Also, the TGI in assay [9] came out at 56.1 µM; in [8] it was 26.5 µM; in assay [10], 43.8 µM.

On to `CC(=O)Nc1ccc(-c2nnc(SCC(=O)Nc3cccc([N+](=O)[O-])c3)o2)cc1`, for which the TGI in assay [1] was 33.2 µM; in assay [2], 29.7 µM; in assay [3], 39.8 µM; in assay [4], 33.3 µM; in [5], 27.4 µM; in [6] it was above 100 µM. Besides, the concentration for total growth inhibition (TGI) in assay [7] came to 32.9 µM; in assay [8], 27.1 µM; in [10] it was 28.8 µM.

Consider `CNC(=O)c1ccccc1[S+]1c2cccc3cccc(c23)C(=O)N1C` (centres undefined), for which the TGI in [1], in [2], in [3], in assay [4], in assay [5] and in [6] was above 100 µM throughout. The total growth inhibition concentration (TGI) in assay [9] and in assay [8] was above 100 µM each time.

On to `CNc1ncnc2c1nnn2C`, for which the total growth inhibition concentration (TGI) in assay [1], in [2], in [3], in assay [4], in assay [5] and in assay [6] was above 100 µM each time. The TGI in [7] and in [8] was above 100 µM each time.

Take `CCCCNC(=S)c1ccc(OC(=O)Nc2ccc(Cl)cc2)cc1`: the total growth inhibition concentration (TGI) in assay [2], in assay [3], in [4], in assay [5], in assay [6] and in [8] was above 100 µM throughout. The TGI in assay [10] was above 100 µM.

`COc1cc2cc3c4c(cc(OC)c(OC)c4c2cc1OC)CCN3C(=O)N(C)C`: the total growth inhibition concentration (TGI) in [1] was above 100 µM; in assay [2], above 10 µM; in assay [3], above 100 µM; in [4] it was above 100 µM; in assay [5] it was above 100 µM; in assay [6], above 100 µM. Further, the TGI in assay [7], in assay [8] and in assay [10] was above 100 µM throughout.
